The target of one experiment is T1, Protein skinhead-1 (Caenorhabditis elegans, UniProt P34707).
T1 sequence (P34707 whole entry): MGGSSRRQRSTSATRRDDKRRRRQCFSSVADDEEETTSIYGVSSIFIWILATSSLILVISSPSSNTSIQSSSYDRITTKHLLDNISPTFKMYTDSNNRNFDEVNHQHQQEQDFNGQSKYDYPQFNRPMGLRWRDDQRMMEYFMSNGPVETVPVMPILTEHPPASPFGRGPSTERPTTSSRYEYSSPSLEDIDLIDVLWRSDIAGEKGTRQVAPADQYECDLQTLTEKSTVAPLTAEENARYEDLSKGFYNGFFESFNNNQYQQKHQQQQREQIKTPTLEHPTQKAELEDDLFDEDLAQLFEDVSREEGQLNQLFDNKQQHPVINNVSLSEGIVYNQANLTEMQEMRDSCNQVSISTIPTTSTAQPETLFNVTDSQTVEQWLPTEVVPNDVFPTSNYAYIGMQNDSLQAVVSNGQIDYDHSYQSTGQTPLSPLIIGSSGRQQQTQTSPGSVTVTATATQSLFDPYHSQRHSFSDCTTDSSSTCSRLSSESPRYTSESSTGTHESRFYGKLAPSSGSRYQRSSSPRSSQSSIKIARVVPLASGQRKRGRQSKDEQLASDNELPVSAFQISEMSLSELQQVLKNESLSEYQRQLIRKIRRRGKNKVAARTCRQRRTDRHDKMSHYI
The format is functional.

Another experiment addresses Cytochrome P450 3A4 (Homo sapiens, UniProt P08684).
A further experiment relates to INS1. Description: beta cell apoptosis inhibitors, cytokine rescue, dose response, luminescence, retest (AID 449756).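 Also: cell death triggered by IL-1 beta plus TNF-alpha plus IFN-gamma mixture; protective hits raise ATP signal compared with cytokine alone wells.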 The format is functional, cell-based. The settings on record: Rattus norvegicus, INS1.
Experiment [1] concerns Streptococcus sp. 'group A'. As to the kind of experiment: growth inhibition of control SK(-) GAS strain, dose response, counter-screen for streptokinase expression inhibitor project, luminescence, kanamycin, BacTiterGlo, confirmation (AID 1900). The format is functional, organism-based.
The next experiment addresses T2, Streptokinase A (Streptococcus pyogenes serotype M1, UniProt P10520).
T2 sequence (P10520 whole entry): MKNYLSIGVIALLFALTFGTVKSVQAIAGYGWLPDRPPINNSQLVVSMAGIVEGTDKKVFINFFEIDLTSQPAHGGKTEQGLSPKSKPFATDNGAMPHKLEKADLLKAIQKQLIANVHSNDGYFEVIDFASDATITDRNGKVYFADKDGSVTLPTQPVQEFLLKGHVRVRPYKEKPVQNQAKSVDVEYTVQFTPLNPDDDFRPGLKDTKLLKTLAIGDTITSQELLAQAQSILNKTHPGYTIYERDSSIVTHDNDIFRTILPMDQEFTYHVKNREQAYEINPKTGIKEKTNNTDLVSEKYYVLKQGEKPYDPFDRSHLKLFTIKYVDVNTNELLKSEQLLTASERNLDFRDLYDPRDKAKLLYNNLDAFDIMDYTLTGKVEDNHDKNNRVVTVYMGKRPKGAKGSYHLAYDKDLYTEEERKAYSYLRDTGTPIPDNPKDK
As to the kind of experiment: S. pyogenes streptokinase expression inhibitors, potency, dose response, plasminogen activation absorbance, OD405 (AID 1914).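 Also: secreted streptokinase activity via plasminogen activation per viability signal from cell pellet.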 The format is functional, Streptococcus pyogenes M1 GAS.

The subject of the next experiment is Streptococcus. Description: Group A Streptococcus viability loss, dose response, counter-screen for streptokinase expression inhibitor project, luminescence, BacTiterGlo (AID 1915).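 Also: potency for reduction of bacterial viability or growth.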 It is filed as functional, organism-based.
The next experiment deals with T3, Cytochrome P450 1A2 (Homo sapiens, UniProt P05177).
T3 sequence (P05177 whole entry): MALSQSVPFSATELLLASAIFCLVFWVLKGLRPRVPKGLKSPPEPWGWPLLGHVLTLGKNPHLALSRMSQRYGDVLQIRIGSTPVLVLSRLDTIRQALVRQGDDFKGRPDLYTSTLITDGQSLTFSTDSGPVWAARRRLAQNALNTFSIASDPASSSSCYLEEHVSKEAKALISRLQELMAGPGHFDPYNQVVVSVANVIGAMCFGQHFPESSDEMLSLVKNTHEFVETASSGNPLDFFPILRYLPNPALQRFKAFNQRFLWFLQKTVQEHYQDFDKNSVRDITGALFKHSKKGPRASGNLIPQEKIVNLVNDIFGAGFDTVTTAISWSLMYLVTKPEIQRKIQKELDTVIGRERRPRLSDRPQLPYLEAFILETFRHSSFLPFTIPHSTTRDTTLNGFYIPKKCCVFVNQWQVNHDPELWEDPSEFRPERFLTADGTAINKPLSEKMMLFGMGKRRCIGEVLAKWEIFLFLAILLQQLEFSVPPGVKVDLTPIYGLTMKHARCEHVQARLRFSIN

A short description of experiment [2]: inhibitors of firefly luciferase expression or activity, dose response, H4 neuroglioma cells, luminescence (AID 1990). It is filed as functional, cell-based.
Experiment [3] can be described thus: Luminescence Cell-Based Dose Response HTS to Identify Inhibitors of 5'UTR Stem-Loop Driven Prion Protein mRNA Translation in H4 Neuroglioblastoma Cells. [Related pubchem assays: 1827 (Project Summary), 1813 (Primary HTS)]. It is filed as functional.
A short description of experiment [4]: inhibitors of SNCA 5'UTR-driven reporter translation, confirmation, H4 neuroglioma cells, luminescence (AID 1988). The format is functional, cell-based.
Experiment [5] is described as follows: inhibitors of intracellular T. cruzi replication, confirmation, NIH3T3 host cells, beta-gal luminescence (AID 2044).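 Also: intracellular parasites grown in NIH/3T3 mouse fibroblasts as host cells; luminescent beta-galactosidase reporter signal from transgenic T. cruzi replicating inside host cells; inhibitors lower the luminescence signal.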 It is filed as functional, cell-based.
The nature of experiment [6]: cytotoxicity toward NIH3T3 fibroblasts, dose response, counter-screen, cell-based, ATP luminescence, mouse fibroblasts (AID 2010).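 Also: cells exposed to compound for about 90 hours before reading.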 It is filed as functional.
Another experiment deals with Cytochrome P450 2D6 (Homo sapiens, UniProt P10635).
Sequence of Cytochrome P450 2D6 (P10635 whole entry): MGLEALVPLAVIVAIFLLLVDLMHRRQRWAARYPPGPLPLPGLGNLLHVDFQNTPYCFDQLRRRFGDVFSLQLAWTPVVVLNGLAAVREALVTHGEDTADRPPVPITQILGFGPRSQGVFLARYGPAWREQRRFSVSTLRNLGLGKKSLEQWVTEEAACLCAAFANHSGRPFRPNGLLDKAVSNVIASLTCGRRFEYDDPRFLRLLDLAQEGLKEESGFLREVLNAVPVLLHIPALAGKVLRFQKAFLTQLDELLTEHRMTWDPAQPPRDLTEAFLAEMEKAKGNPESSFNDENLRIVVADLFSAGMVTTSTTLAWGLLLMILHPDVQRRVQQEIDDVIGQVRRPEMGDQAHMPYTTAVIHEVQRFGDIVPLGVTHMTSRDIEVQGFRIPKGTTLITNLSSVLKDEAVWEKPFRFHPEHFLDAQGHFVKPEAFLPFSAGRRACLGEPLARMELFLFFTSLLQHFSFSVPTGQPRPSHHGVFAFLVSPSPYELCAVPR

Structures are written as SMILES. Active and inactive are the calls of the source. Rule as the data show it, for most assays here: actives have a measured EC50 and inactives only a lower limit.

Consider 40 compounds from ChEMBL document CHEMBL1201862, “PubChem BioAssay data set” (2004).

Sequence of Cytochrome P450 3A4 (P08684 whole entry): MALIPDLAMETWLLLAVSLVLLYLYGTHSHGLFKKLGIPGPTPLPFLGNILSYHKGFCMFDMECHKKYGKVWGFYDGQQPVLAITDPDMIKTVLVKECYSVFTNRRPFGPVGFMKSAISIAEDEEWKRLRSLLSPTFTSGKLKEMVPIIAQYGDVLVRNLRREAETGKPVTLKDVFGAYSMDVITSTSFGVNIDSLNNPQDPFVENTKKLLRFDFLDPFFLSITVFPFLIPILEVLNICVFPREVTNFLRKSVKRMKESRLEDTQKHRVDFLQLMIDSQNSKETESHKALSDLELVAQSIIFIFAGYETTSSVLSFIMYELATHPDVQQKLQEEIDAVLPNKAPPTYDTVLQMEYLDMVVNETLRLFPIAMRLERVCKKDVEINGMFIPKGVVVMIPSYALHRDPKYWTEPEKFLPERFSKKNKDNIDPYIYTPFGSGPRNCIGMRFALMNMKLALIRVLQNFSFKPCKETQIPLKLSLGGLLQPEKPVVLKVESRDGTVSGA

Turning to `OCc1cccc(-c2csc(C(O)(c3ccccc3)C(F)(F)F)n2)c1` (stereo not given), the IC50 on Protein skinhead-1 was > 100 µM (inactive).

Regarding `CN(C)S(=O)(=O)c1cccc(NC(=O)COC(=O)c2ccc(Br)o2)c1`, on Cytochrome P450 3A4, the half-maximal activity concentration (AC50) was 20 µM (inconclusive).

On to `CN1CCN(c2ncc3ncc(=O)n(Cc4cccs4)c3n2)CC1`, for which, at Cytochrome P450 3A4, the AC50 was 25.1 µM (inconclusive).

In the case of `O=C1CSC(c2ccccc2F)N1` (stereo not given), in the experiment on INS1, the AC50 is > 260 µM (inactive).

Take `O=C(Nc1c(C(=O)N2CCCCC2)cnn1-c1ccccc1)c1ccco1`: the half-maximal activity concentration (AC50) on Cytochrome P450 3A4 is 17.8 µM (inconclusive).

Turning to `O=C(Nc1ccc(N2CCCCC2)cc1)c1ccc2ccccc2n1`, the IC50 on Protein skinhead-1 was > 100 µM (inactive).

For the compound `CCOc1ccc(-n2c(=O)[nH]cc(C(=O)Nc3ccc(OC)c(OC)c3)c2=O)cc1`, the AC50 in the experiment with INS1 is > 260 µM (inactive).

Regarding `O=C(COC(=O)C12CC3CC(CC(O)(C3)C1)C2)Nc1cccc(Br)c1`, the IC50 on Protein skinhead-1 was > 100 µM (inactive).

Take `FC(F)(F)c1cc(Nc2ccccc2)nc(-c2ccccn2)n1`: the figures for the half-maximal effective concentration (EC50) (in experiment [1]; on Streptokinase A; with Streptococcus) were 9.52 µM (active), > 150 µM (not active) and 88.6 µM (active), respectively.

For `Clc1ccccc1-c1nnc(-c2ccccc2Cl)o1`, the IC50 at Protein skinhead-1 was 53.8 µM (inactive).

For the compound `O=C(NC(=S)N1CCN(c2nc(-c3ccccc3)cs2)CC1)c1cccnc1`, the EC50 in experiment [1] was 5.55 µM (active); on Streptokinase A it was > 150 µM (not active); in the experiment with Streptococcus, > 150 µM (not active).

`COc1ccc(OC)c(-n2c(C)cc(/C=C3\C(=N)N4N=C(CC(=O)N5CCOCC5)SC4=NC3=O)c2C)c1`: the figures for the concentration for a half-maximal effect (EC50) (in [1]; at Streptokinase A; in the experiment on Streptococcus) were 36.3 µM (active), > 150 µM (not active) and 87.9 µM (active), respectively.

With `Cc1c(C)c2c(c(C)c1O)CC[C@@](C)(C(=O)O)O2`, the half-maximal activity concentration (AC50) was 20 µM (inconclusive) at Cytochrome P450 1A2 and 12.6 µM (inconclusive) at Cytochrome P450 3A4.

Regarding `Cc1ccccc1NC(=O)Cc1nc(COC(=O)c2cccc(O)c2)cs1`, the IC50 on Protein skinhead-1 was > 100 µM (inactive).

Turning to `COC(=O)c1sc2ccccc2c1-n1cccc1C(=O)C(=O)Nc1ccc(Cl)cc1`, the AC50 on Cytochrome P450 1A2 is 2.82 µM (inconclusive); at Cytochrome P450 3A4, 14.1 µM (inconclusive).

With `COc1ccc(CN(C)S(=O)(=O)c2nnc(NC(=O)c3ccccc3Br)s2)cc1`, the concentration for a half-maximal effect (EC50) is 6.23 µM (active) in [1], 9.36 µM (active) on Streptokinase A and 98.9 µM (active) in the experiment with Streptococcus.

As for `Cc1ccc(C23CC4CC(CC(C(=O)N5CCN(C)CC5)(C4)C2)C3)cc1`, the concentration giving a half-maximal response (EC50) (in [1]; on Streptokinase A; in the experiment on Streptococcus) was > 150 µM (not active) in each case.

As for `COc1ccccc1NC(=O)Cn1cc(C(=O)c2ccco2)c2ccccc21`, in the experiment with INS1, the AC50 was 9.44 µM (active).

`O=C(NC1CCN(Cc2ccccc2)CC1)c1cc(Br)c(Br)[nH]1`: the concentration giving a half-maximal response (EC50) in [2] is > 120 µM (not active); in experiment [3], > 120 µM (not active); in [4] it was > 120 µM (not active); in experiment [5] it was 0.539 µM (active); in [6] it was > 60 µM (not active).

On to `Clc1cccc(CSc2ncn(-c3ccccc3)n2)c1`, for which the IC50 at Protein skinhead-1 is 24.7 µM (active).

For `O=C(Nc1ccc2c(c1)Cc1ccccc1-2)c1ccco1`, the IC50 on Protein skinhead-1 was > 100 µM (inactive).

`COc1ccc(C2CC(=O)c3cnc(N4CCN(Cc5ccccc5)CC4)nc3C2)cc1` (stereo not given): the EC50 in experiment [1] was 14.9 µM (active); at Streptokinase A, > 150 µM (not active); in the experiment with Streptococcus, 21.6 µM (active).

Take `COc1ccc(N2C(=O)NC(NC(=O)c3ccncc3)(C(F)(F)F)C2=O)cc1` (stereo not given): the AC50 at Cytochrome P450 3A4 was 22.4 µM (inconclusive).

`CC(C)=CCc1c(-c2ccc(O)cc2O)oc2c3c(cc(O)c2c1=O)OC(C)(C)C=C3` [MORUSIN]: the EC50 in [1] is 2.71 µM (active); at Streptokinase A it was 1.15 µM (active); in the experiment with Streptococcus, 2.96 µM (active).

Regarding `c1ccc(-c2csc(N3CCN(c4ccccn4)CC3)n2)cc1`, on Protein skinhead-1, the 50% inhibitory concentration (IC50) is 26.5 µM (active).

Consider `O=C(Nc1ccccc1)N1CC[C@@]2(CCCN(C(=O)Oc3ccccc3)C2)C1`, for which the AC50 at Cytochrome P450 1A2 was 15.8 µM (inconclusive); on Cytochrome P450 3A4, 25.1 µM (inconclusive).

Turning to `Cc1cc(C)n(C(=O)/C(C#N)=N/Nc2cc(Cl)cc(Cl)c2)n1`, the EC50 in experiment [1] is 2.34 µM (active); on Streptokinase A it was > 150 µM (not active); with Streptococcus it was 12.3 µM (active).

As to `CCCC[C@@H]1C[C@H]1C(NC(=O)c1ccccc1)c1ccccc1C(F)(F)F` (stereo not given in full), the concentration at half-maximal activity (AC50) is 10 µM (inconclusive) at Cytochrome P450 1A2 and 3.16 µM (inconclusive) at Cytochrome P450 3A4.

On to `CCOC(=O)c1ccc(Nc2nnc(C(C)(C)C)c(O)n2)cc1`, for which, at Protein skinhead-1, the IC50 is > 100 µM (inactive).

For the compound `O=C(Nc1ccc(OC(F)F)c(Cl)c1)c1cccc(OC(F)F)c1`, the IC50 at Protein skinhead-1 is 48.3 µM (active).

In the case of `O=C(N/N=C/c1c[nH]c2ccccc12)c1ccn(Cc2ccc(Cl)cc2Cl)n1`, the results for the half-maximal activity concentration (AC50) on Cytochrome P450 2D6 and at Cytochrome P450 3A4 were 7.08 µM (inconclusive) and 3.55 µM (inconclusive), respectively.

Consider `Cc1nc2cnc(N(C)C)nc2n(Cc2cccs2)c1=O`, for which the half-maximal activity concentration (AC50) on Cytochrome P450 2D6 was 12.6 µM (inconclusive); on Cytochrome P450 3A4 it was 3.16 µM (inconclusive).

`O=C(c1csnn1)N1CCC[C@@]2(CCN(c3ccccn3)C2)C1`: the concentration at half-maximal activity (AC50) is 12.6 µM (inconclusive) at Cytochrome P450 2D6 and 6.31 µM (inconclusive) on Cytochrome P450 3A4.

Turning to `CCCOc1ccc(/C=C/c2c([N+](=O)[O-])c(=O)n(C)c(=O)n2C)cc1`, the 50% effective concentration (EC50) is 26.9 µM (active) in [1], > 150 µM (not active) on Streptokinase A and > 150 µM (not active) in the experiment on Streptococcus.

With `CN1CCN(c2ncc3nc(-c4cc(F)cc(F)c4)c(=O)n(Cc4cccs4)c3n2)CC1`, the values for the AC50 on Cytochrome P450 1A2 and on Cytochrome P450 3A4 were 6.31 µM (inconclusive) and 25.1 µM (inconclusive), respectively.

As for `COc1ccc2nc(Nc3nc4cc5c(cc4s3)OCO5)sc2c1`, the EC50 in experiment [1] is 1.17 µM (active); at Streptokinase A it was > 150 µM (not active); in the experiment with Streptococcus, > 150 µM (not active).

In the case of `COCCNC(=O)CC(c1ccccc1)c1ccccc1`, the IC50 on Protein skinhead-1 is > 100 µM (inactive).

Turning to `COc1ccccc1NS(=O)(=O)c1cccc(C(=O)N/N=C/c2cn(-c3ccccc3)nc2-c2ccccc2)c1`, the EC50 in experiment [2], in [3] and in experiment [4] was > 120 µM (not active) in each case.

As for `CC1CCN(C(=O)c2ccc(COc3ccccc3Cl)o2)CC1`, the concentration at half-maximal activity (AC50) on Cytochrome P450 2D6 was 28.2 µM (inconclusive); on Cytochrome P450 3A4, 31.6 µM (inconclusive).

For the compound `CCC(C)Sc1ccc(-c2nc3ccc(C)cn3c2NCc2ccccc2)cc1OC` (stereo not given), in the experiment with INS1, the AC50 was 6.7 µM (active).
